Reference: patent EP4257130A1, “INOBRODIB FOR USE IN THE TREATMENT OF PULMONARY ARTERIAL HYPERTENSION” (Justus-Liebig-Universität Gießen, priority 2022, dated 2023)

Assays:
[1] = system: MCT-PAH; assay: MCT-PAH rat model: right heart catheterisation and histology; assay type: in vivo, SD-Ratten; conditions: MCT-PAH rats, three times weekly for two weeks
From the text: (§1) Um das therapeutische Potenzial der EP300/CREBBP-Hemmung in vivo weiter zu erforschen, haben die Erfinder Versuchstiere in drei verschiedenen Nagetiermodellen mit etablierter PAH mit der Substanz CCS1477 behandelt, wobei CCS1477 durch orale Verabreichung über zwei Wochen lang dreimal wöchentlich verabreicht wurde. Es wurden folgende drei verschiedenen Nagetiermodelle für eine PAH (FHR-PAH, MCT-PAH und SuHx-PAH) getestet: • Fawn-hooded hypertensive Ratten (FHR): Das ist ein genetischer Rattenstamm, bei dem PAH im Alter spontan auftritt und der ähnliche PAH-Anomalien aufweist, wie sie bei IPAH bei Menschen nach 40 Wochen auftreten. • Durch Monocrotalin (MCT) induziertes PAH-Rattenmodell. • Ein SUGEN5416/chronische Hypoxie (SuHx)-Rattenmodell für PAH, bei dem die Ratten eine einmalige Injektion von SUGEN5416 erhielten und anschließend einer chronischen Hypoxie (10% O2) ausgesetzt wurden (SuHx-PAH).
(§2) Für die MCT-PAH wurden männlichen und weiblichen SD-Ratten (Sprague-Dawley-Ratten) subkutan 60 mg/kg MCT (Sigma, Katalog: C2401) injiziert, um PAH zu induzieren. Bei der SuHx-PAH erhielten SD-Ratten eine einmalige subkutane Injektion von SUGEN5416 (20 mg/kg) und wurden drei Wochen lang einer normobaren Hypoxie ausgesetzt, bevor sie für zwei Wochen an die Raumluft zurückkehrten. Zwei Wochen nach der MCT-Injektion bzw. drei Wochen nach der SUGEN5416-Injektion (sobald PAH festgestellt wurde) wurden die Ratten nach dem Zufallsprinzip in vier Gruppen eingeteilt und erhielten zwei Wochen lang dreimal wöchentlich entweder Vehikel (Verabreichung von 1 % Methylcellulose in destilliertem Wasser oder intratracheale Vernebelung von 4 % DMSO in PBS als Negativkontrolle), CCS1477 (Verabreichung von 10 mg/kg in 1 % Methylcellulose + destilliertem Wasser). Einjährige männliche und weibliche FHR-Ratten mit etablierter PAH wurden in dieselben vier Gruppen wie beim MCT-Modell eingeteilt und denselben Behandlungsmethoden unterzogen. Nach zweiwöchiger Behandlung wurde eine Rechtsherzkatheteruntersuchung bei geschlossenem Thorax durchgeführt, um folgende hämodynamischen Daten zu erfassen: Systolischer Rechtsventrikulärer Druck (RVSP), mittlerer PA-Druck (mPAP), Herzzeitvolumen (CO) und Schlagvolumen (SV). Der Gesamtwiderstand der Lunge (TPR) wurde durch Division von mPAP durch CO ermittelt. Nach der hämodynamischen Messung wurden den Ratten Gewebeproben entnommen. Die Experimente wurden gemäß den Richtlinien des Canadian Council on Animal Care durchgeführt. Alle Protokolle wurden von der institutionellen Ethikkommission für Tiere (Tierschutzausschuss der Universität Laval) geprüft und genehmigt (Protokollnummer 2019-018-2). Alle Experimente folgten den Richtlinien für die präklinische Forschung bei PAH.
(§3) • Abbildung 1: Umkehrung von PAH-Phänotypen durch therapeutische Modulation der dysregulierten HATs EP300 und CREBBP ex vivo • A: PAH-FBs wurden mit siRNAs (siP300) behandelt, die auf EP300 abzielen (n=3), um die genspezifische funktionelle Rolle von EP300 bei der Hyperproliferation ex vivo 48 Stunden nach der Transfektion zu untersuchen. Die Zellproliferation wurde durch BrdU-Inkorporation bestimmt. Die Werte wurden auf scrambled siRNA (siScr) normalisiert und sind als Mittelwert ± SD angegeben (n=3, ungepaarter t-Test; *P < 0,05 vs. scrambled siRNA). • B: PAH-FBs wurden mit verschiedenen Konzentrationen des EP300/CREBBP-Inhibitors CCS1477 oder dem Lösungsmittel DMSO inkubiert, um die Wirkung der selektiven EP300/CREBBP-Inhibition auf die Zellproliferation (bewertet durch BrdU-Inkorporation) zu untersuchen. Als Vergleichssubstanz wurde ein weiterer EP300/CREBBP-Inhibitor (SGC-CBP30) parallel dazu unter denselben Bedingungen inkubiert. […]

[2] = system: FHR-PAH; assay: FHR-PAH rat model: right heart catheterisation and histology; assay type: in vivo, Fawn-hooded hypertensive Ratten; conditions: FHR-PAH rats, three times weekly for two weeks
From the text: as §1, §2, §3

[3] = system: PAH-SMCs; assay: Apoptosis in PAH smooth muscle cells; assay type: cell-based, Mensch; conditions: vs. DMSO
From the text: (§4) Diese Untersuchungen führten zu der Erkenntnis, dass die epigenetische Regulation der entwicklungsbedingten TF-Expression in der Lunge durch Modulation der EP300/CREBBP-Funktion rückgängig gemacht werden kann. Die Wirkung des niedermolekularen Inhibitors (Substanz, Wirkstoff) CCS1477 auf die Proliferation von Gefäßzellen, die Apoptose sowie die Gen- und Proteinexpression wurde mit Hilfe geeigneter Assays nach der Transfektion untersucht. Nachdem Zellen zur Subkonfluenz gewachsen sind, wurde ihnen mit steigenden Konzentrationen der selektive EP300-Inhibitor CCS1477 (Chemietek, Katalognummer: CT-CCS1477) hinzugefügt. Die aus PAH-Patienten isolierten FBs wurden also mit dem isoformselektiven HAT-Inhibitor CCS1477 behandelt. Gleichzeitig wurde den Zellen das Lösungsmittel DMSO (Sigma) mit entsprechenden Konzentrationen hinzugefügt.
(§5) PAH-FBs wurden mit verschiedenen Konzentrationen der Substanz CCS1477 oder dem Lösungsmittel DMSO inkubiert, um die Zellproliferation und die Induktion von Apoptose 24 Stunden danach zu untersuchen. […]
(§6) Das therapeutische Potenzial der EP300/CREBBP-Hemmung durch die Substanz CCS1477 wurde untersucht. […] Die Wirkung der EP300-Hemmung auf das vaskuläre Remodelling wurde durch Quantifizierung der prozentualen medialen Wanddicke in den mit der Substanz CCS1477 inkubierten PCLS im Vergleich zu den mit DMSO inkubierten Kontrollen bewertet. […]

[4] = system: PAH-FBs; assay: Cell proliferation by BrdU incorporation in PAH fibroblasts; assay type: cell-based, Mensch; conditions: PAH-FBs isolated ex vivo, various concentrations, 24 h, vs. DMSO
From the text: as §4, with “Gleichzeitig wurde den Zellen das Lösungsmittel DMSO (Sigma) mit entsprechenden Konzentrationen hinzugefügt.” left out
(§7) • Abbildung 1: Umkehrung von PAH-Phänotypen durch therapeutische Modulation der dysregulierten HATs EP300 und CREBBP ex vivo • A: PAH-FBs wurden mit siRNAs (siP300) behandelt, die auf EP300 abzielen (n=3), um die genspezifische funktionelle Rolle von EP300 bei der Hyperproliferation ex vivo 48 Stunden nach der Transfektion zu untersuchen. […] Skalenbalken: 50 µm. • E: Die Wirkung der P300-Inhibition (200 µM) auf den Gefäßumbau wurde durch Quantifizierung der prozentualen medialen Wanddicke in den mit dem EP300/CREBBP-Inhibitor CCS1477 inkubierten PCLS im Vergleich zu den mit DMSO inkubierten Kontrollen bewertet. […]

[5] = system: SuHx-PAH; assay: SuHx-PAH rat model (SUGEN5416/chronic hypoxia): right heart catheterisation and histology; assay type: in vivo, SD-Ratten; conditions: three times weekly for two weeks
From the text: as §1, §2, §3

[6] = system: PAH-PCLS; assay: Vascular remodelling (medial wall thickness) in precision-cut lung slices ex vivo; assay type: cell-based, Mensch; conditions: human PAH-PCLS, 200 µM on days 2 and 6, fixed day 10, vessels 20-150 µm, vs. DMSO
From the text: Lungengewebeproben wurden von Patienten mit IPAH entnommen. Aus den mit 3% niedrigschmelzender Agarose gefüllten Lungenproben von Patienten mit IPAH wurden mit einem Vibratom (Leica Biosystems) Gewebeschnitte (400 µm dick) angefertigt. Die Lungengewebeschnitte wurden in DMEM-GlutaMAX-Medium mit 10 % fetalem Kälberserum, 1 % Penicillin/Streptomycin und 0,1 % Amphotericin B (Thermo Fisher Scientific) kultiviert, und die Behandlung wurde am zweiten Tag eingeleitet. Die Substanz CCS1477 wurde in einer Konzentration von 200 µM an den Tagen 2 und 6 verabreicht. Am 10. Tag wurde das Gewebe in 4% Paraformaldehyd (Roti-Histofix; Carl Roth) fixiert und in Paraffin eingebettet. Die mediale Wanddicke wurde in allen Gefäßen mit einer Größe von 20-150 µm in den Lungenschnitten gemessen.
as §6, with “untersucht. Dazu wurde die Wirksamkeit auf PAH-FBs und PAH-SMCs geprüft, die aus den Lungenarterien von menschlichen PAH-Patienten und aus den Lungenarterien von Ratten mit MCT-PAH (Rattenmodell mit Monocrotalin) isoliert wurden.” for “untersucht.”

[7] = system: PAH-SMCs; assay: Cell proliferation (hyperproliferative phenotype) in PAH smooth muscle cells; assay type: cell-based, Mensch; conditions: vs. DMSO
From the text: as §4, §5, §6

[8] = system: PAH-FBs; assay: Apoptosis by Cell Death Detection ELISAPLUS in PAH fibroblasts; assay type: cell-based, Mensch; conditions: PAH-FBs isolated ex vivo, various concentrations, 24 h, vs. DMSO
From the text: as §4, with “Gleichzeitig wurde den Zellen das Lösungsmittel DMSO (Sigma) mit entsprechenden Konzentrationen hinzugefügt.” left out
as §7

[9] = 10 mg/kg in 1 % methylcellulose, oral, vs. vehicle
[10] = 10 mg/kg oral, TPR = mPAP divided by CO
[11] = SUGEN5416/chronic hypoxia PAH rats, 10 mg/kg oral, vs. vehicle
[12] = SuHx-PAH rats, 10 mg/kg in 1 % methylcellulose, oral, vs. vehicle

CO[C@H]1CC[C@H](n2c([C@@H]3CCCC(=O)N3c3ccc(F)c(F)c3)nc3cc(-c4c(C)noc4C)ccc32)CC1 [CCS1477, (S)-1-(3,4-difluorophenyl)-6-(5-(3,5-dimethylisoxazol-4-yl)-1-((1r,4S)-4-methoxycyclohexyl)-1H-benzo[d]imidazol-2-yl)piperidin-2-on]
RVSP [1, 9]: signifikanten Senkung | mPAP [1, 9]: signifikanten Senkung | mediale Wanddicke der distalen PAs ([1]; 10 mg/kg oral): signifikant verringert | CO ([1]; 10 mg/kg oral, vs. vehicle): verbesserten sich nach der Behandlung mit der Substanz CCS1477 bei FHR-PAH und MCT-PAH signifikant | SV ([1]; 10 mg/kg oral, vs. vehicle): verbesserten sich nach der Behandlung mit der Substanz CCS1477 bei FHR-PAH und MCT-PAH signifikant | TPR [1, 10]: signifikanten Senkung | RVSP [2, 9]: signifikanten Senkung | mPAP [2, 9]: signifikanten Senkung | mediale Wanddicke der distalen PAs ([2]; 10 mg/kg oral): signifikant verringert | molekulare Marker für Myokardhypertrophie ([2]; 10 mg/kg oral): signifikant abgeschwächt | CO ([2]; 10 mg/kg oral, vs. vehicle): verbesserten sich nach der Behandlung mit der Substanz CCS1477 bei FHR-PAH und MCT-PAH signifikant | SV ([2]; 10 mg/kg oral, vs. vehicle): verbesserten sich nach der Behandlung mit der Substanz CCS1477 bei FHR-PAH und MCT-PAH signifikant | TPR [2, 10]: signifikanten Senkung | Apoptoserate [3]: schwächte den hyperproliferativen Phänotyp und die Apoptoserate von PAH-FBs und PAH-SMCs deutlich ab | hyperproliferativer Phänotyp (Zellproliferation, Einbau von BrdU) [4]: schwächte den hyperproliferativen Phänotyp und die Apoptoserate von PAH-FBs und PAH-SMCs deutlich ab | CO [5, 11]: verbesserte CO und SV auch bei SUGEN5416/chronischer Hypoxie-PAH signifikant | SV [5, 11]: verbesserte CO und SV auch bei SUGEN5416/chronischer Hypoxie-PAH signifikant | RVSP [5, 12]: signifikanten Senkung | mPAP [5, 12]: signifikanten Senkung | mediale Wanddicke der distalen PAs ([5]; SuHx-PAH rats, 10 mg/kg oral): signifikant verringert | TPR ([5]; SuHx-PAH rats, 10 mg/kg oral, TPR = mPAP divided by CO): signifikanten Senkung | mediale Wanddicke der umgestalteten PAs [6]: signifikante Verringerung der medialen Wanddicke | hyperproliferativer Phänotyp [7]: schwächte den hyperproliferativen Phänotyp und die Apoptoserate von PAH-FBs und PAH-SMCs deutlich ab | Apoptoserate (Induktion von Apoptose, Cell Death Detection ELISAPLUS) [8]: schwächte den hyperproliferativen Phänotyp und die Apoptoserate von PAH-FBs und PAH-SMCs deutlich ab
